The record followed here is US5972953A, “Brain cell protective agent” (priority 1993, dated 1999).

pEC50: −log10 of the molar value.

The test system of the assay is cultured nerve cells (cerebral cortex). Briefly: cells. Format: cell-based, Wistar rat. As to conditions: Rattus norvegicus, Cerebral cortex neuron; 10 mM glutamate, 24 hours at 37° C., LDH leakage; read-out: ED50 (the source's name).

`CN(C(=O)/C=C/c1ccccc1)[C@@H]1CC[C@@]2(O)[C@H]3Cc4ccc(O)c5c4[C@@]2(CCN3CC2CC2)[C@H]1O5` [Compound 76, 17-cyclopropylmethyl-3,14β-dihydroxy-4,5α-epoxy-6β-(N-methylcinnamamido)morphinan]: the pEC50 is 5.17. The same measure for `O=C(/C=C/c1ccoc1)S[C@@H]1CC[C@@]2(O)[C@H]3Cc4ccc(O)c5c4[C@@]2(CCN3CC2CC2)[C@H]1O5` (relative stereo) [Compound 119, 17-cyclopropylmethyl-4,5α-epoxy-3,14β-dihydroxy-6β-[trans-3-(3-furyl)acryloylthio]morphinan]: 5.83; for `CN(C(=O)CC(=O)c1ccccc1)[C@@H]1CC[C@@]2(O)[C@H]3Cc4ccc(O)c5c4[C@@]2(CCN3CC2CC2)[C@H]1O5` [Compound 80, 17-cyclopropylmethyl-3,14β-dihydroxy-4,5α-epoxy-6β-(N-methylbenzoylacetoamido) morphinan]: 5.13. The same measure for `CN([C@H]1CC[C@@]2(O)[C@H]3Cc4ccc(O)c5c4[C@@]2(CCN3CC2CC2)[C@H]1O5)S(=O)(=O)Cc1ccccc1` [Compound 112, 17-cyclopropylmethyl-3,14β-dihydroxy-4,5α-epoxy-6α-(N-methyl-phenylmethanesulfonamido)morphinan]: 5.84; for `CCCCN(Cc1ccccc1)[C@@H]1CC[C@@]2(O)[C@H]3Cc4ccc(O)c5c4[C@@]2(CCN3CC2CC2)[C@H]1O5` [Compound 8, 17-cyclopropylmethyl-3,14β-dihydroxy-4,5α-epoxy-6β-(N-butylbenzylamino)morphinan]: 5.92; for `CN(C(=O)/C=C/c1cccc(N=C=S)c1)[C@@H]1CC[C@@]2(O)[C@H]3Cc4ccc(O)c5c4[C@@]2(CCN3CC2CC2)[C@H]1O5` [Compound 117, 17-cyclopropylmethyl-3,14β-dihydroxy-4,5α-epoxy-6β-(N-methyl-3-isothiocyanatocinnamamido)morphinan]: 5.02. Turning to `O=C(CCCCCc1ccccc1)N(CCCc1ccccc1)[C@@H]1CC[C@@]2(O)[C@H]3Cc4ccc(O)c5c4[C@@]2(CCN3CC2CC2)[C@H]1O5` [Compound 72, 17-cyclopropylmethyl-3,14β-dihydroxy-4,5α-epoxy-6β-[N-(3-phenylpropyl)-6-phenylhexanoamido)morphinan], the pEC50 is 6.96.

Consider `CN(C(=O)CCC1CCCC1)[C@@H]1CC[C@@]2(O)[C@H]3Cc4ccc(O)c5c4[C@@]2(CCN3CC2CC2)[C@H]1O5` [Compound 51, 17-cyclopropylmethyl-3,14β-dihydroxy-4,5α-epoxy-6β-(N-methyl-3-cyclopentylpropioamido)morphinan], for which the pEC50 was 4.87. The same measure for `Oc1ccc2c3c1O[C@H]1[C@H](N(CCCCc4ccccc4)Cc4ccccc4)CC[C@@]4(O)[C@@H](C2)N(CC2CC2)CC[C@]314` [Compound 13, 17-cyclopropylmethyl-3,14β-dihydroxy-4,5α-epoxy-6β-(N-4-phenylbutylbenzylamino) morphinan]: 6.68; for `CC(C)CN(CCCCCCc1ccccc1)[C@@H]1CC[C@@]2(O)[C@H]3Cc4ccc(O)c5c4[C@@]2(CCN3CC2CC2)[C@H]1O5` [Compound 98, 17-cyclopropylmethyl-3,14β-dihydroxy-4,5α-epoxy-6β-(N-isobutyl-6-phenylhexylamino)morphinan]: 6.80. Then `CN(C(=O)c1ccccc1)[C@@H]1CC[C@@]2(O)[C@H]3Cc4ccc(O)c5c4[C@@]2(CCN3CC2CC2)[C@H]1O5` [Compound 45, 17-cyclopropylmethyl-3,14β-dihydroxy-4,5α-epoxy-6β-(N-methylbenzamido)morphinan], with 5.43; and `CN(C(=O)Cc1ccc2ccccc2c1)[C@@H]1CC[C@@]2(O)[C@H]3Cc4ccc(O)c5c4[C@@]2(CCN3CC2CC2)[C@H]1O5` [Compound 83, 17-cyclopropylmethyl-3,14β-dihydroxy-4,5α-epoxy-6β-(N-methyl-2-naphthylacetoamido)morphinan], with 5.33.

In the case of `CN(C(=S)NCc1ccccc1)[C@H]1CC[C@@]2(O)[C@H]3Cc4ccc(O)c5c4[C@@]2(CCN3CC2CC2)[C@H]1O5` [Compound 105, 17-cyclopropylmethyl-3,14β-dihydroxy-4,5α-epoxy-6α-(N-methyl-N'-benzylthioureido)morphinan], the pEC50 is 4.69.

`CN(C(=O)Cc1cccc2ccccc12)[C@@H]1CC[C@@]2(O)[C@H]3Cc4ccc(O)c5c4[C@@]2(CCN3CC2CC2)[C@H]1O5` [Compound 86, 17-cyclopropylmethyl-3,14β-dihydroxy-4,5α-epoxy-6β-(N-methyl-1-naphthylacetoamido)morphinan]: the pEC50 was 5.13.

As to `CCCCN(C(=O)/C=C/c1cccc(C(F)(F)F)c1)[C@@H]1CC[C@@]2(O)[C@H]3Cc4ccc(O)c5c4[C@@]2(CCN3CC2CC2)[C@H]1O5` [Compound 66, 17-cyclopropylmethyl-3,14β-dihydroxy-4,5α-epoxy-6β-(N-butyl-3-trifluoromethylcinnamamido)morphinan], the pEC50 was 6.48. On to `CN(C(=O)Nc1ccc(Cl)c(Cl)c1)[C@H]1CC[C@@]2(O)[C@H]3Cc4ccc(O)c5c4[C@@]2(CCN3CC2CC2)[C@H]1O5` [Compound 103, 17-Cyclopropylmethyl-3,14β-dihydroxy-4,5α-epoxy-6α-[N-methyl-N'-(3,4-dichlorophenyl)ureido]morphinan], for which the pEC50 was 6.27. Then `CCN(C(=O)/C=C/c1cccc(C(F)(F)F)c1)[C@@H]1CC[C@@]2(O)[C@H]3Cc4ccc(O)c5c4[C@@]2(CCN3CC2CC2)[C@H]1O5` [Compound 63, 17-cyclopropylmethyl-3,14β-dihydroxy-4,5α-epoxy-6β-(N-ethyl-3-trifluoromethylcinnamarido)morphinan], with 5.90. The same measure for `CN(C(=S)NCc1ccccc1)[C@@H]1CC[C@@]2(O)[C@H]3Cc4ccc(O)c5c4[C@@]2(CCN3CC2CC2)[C@H]1O5` [Compound 106, 17-cyclopropylmethyl-3,14β-dihydroxy-4,5α-epoxy-6β-(N-methyl-N'-benzylthioureido)morphinan]: 4.96; for `CCC/C=C/C(=O)N(C)[C@@H]1CC[C@@]2(O)[C@H]3Cc4ccc(O)c5c4[C@@]2(CCN3CC2CC2)[C@H]1O5` [Compound 75, 17-cyclopropylmethyl-3,14β-dihydroxy-4,5α-epoxy-6β-(N-methyl-trans-2-hexenoamido)morphinan]: 4.78; for `COCCOC(=O)N(C)[C@H]1CC[C@@]2(O)[C@H]3Cc4ccc(O)c5c4[C@@]2(CCN3CC2CC2)[C@H]1O5` [Compound 100, 17-cyclopropylmethyl-3,14β-dihydroxy-4,5α-epoxy-6α-(N-methyl-2-methoxyethoxycarbamido)morphinan]: 4.41. Then `O=C(CCc1ccccc1)O[C@H]1CC[C@@]2(O)[C@H]3Cc4ccc(O)c5c4[C@@]2(CCN3CC2CC2)[C@H]1O5` [Compound 113, 17-cyclopropylmethyl-3,14β-dihydroxy-4,5α-epoxy-6α-(3-phenylpropionyloxy)morphinanan], with 6.28; and `CN(C(=O)NCc1ccccc1)[C@H]1CC[C@@]2(O)[C@H]3Cc4ccc(O)c5c4[C@@]2(CCN3CC2CC2)[C@H]1O5` [Compound 104, 17-Cyclopropylmethyl-3,14β-dihydroxy-4,5α-epoxy-6α-(N-methyl-N'-benzylureido)morphinan], with 6.24. As to `CCCCOC(=O)N(C)[C@@H]1CC[C@@]2(O)[C@H]3Cc4ccc(O)c5c4[C@@]2(CCN3CC2CC2)[C@H]1O5` [Compound 48, 17-cyclopropylmethyl-3,14β-dihydroxy-4,5α-epoxy-6β-(N-methylbutyroxycarbamido)morphinan], the pEC50 was 5.15. The same measure for `CN(C(=O)/C=C/c1ccoc1)[C@@H]1CC[C@@]2(O)[C@H]3Cc4ccc(O)c5c4[C@@]2(CCN3CC2CC2)[C@H]1O5` (relative stereo) [Compound 43, 17-cyclopropylmethyl-3,14β-dihydroxy-4,5α-epoxy-6β-[N-methyl-trans-3-(3-furyl)acrylamido]morphinan]: 4.49. On to `CN(C(=O)Cc1cccc(Cl)c1)[C@@H]1CC[C@@]2(O)[C@H]3Cc4ccc(O)c5c4[C@@]2(CCN3CC2CC2)[C@H]1O5` [Compound 85, 17-cyclopropylmethyl-3,14β-dihydroxy-4,5α-epoxy-6β-(N-methyl-3-chlorophenylacetoamido) morphinan], for which the pEC50 is 5.37. The same measure for `CN(C(=O)Cc1csc2ccccc12)[C@@H]1CC[C@@]2(O)[C@H]3Cc4ccc(O)c5c4[C@@]2(CCN3CC2CC2)[C@H]1O5` [Compound 87, 17-cyclopropylmethyl-3,14β-dihydroxy-4,5α-epoxy-6β-(N-methyl-3-benzo[b]thienylacetoamrido)morphinan]: 5.67; for `CC(C)CN(C(=O)Cc1ccc(Cl)c(Cl)c1)[C@@H]1CC[C@@]2(O)[C@H]3Cc4ccc(O)c5c4[C@@]2(CCN3CC2CC2)[C@H]1O5` [Compound 39, 17-cyclopropylmethyl-3,14β-dihydroxy-4,5α-epoxy-6β-(N-isobutyl-3,4-dichlorophenylacetoamido)morphinan]: 6.41; for `CN(C(=O)/C=C/c1ccco1)[C@@H]1CC[C@@]2(O)[C@H]3Cc4ccc(O)c5c4[C@@]2(CCN3CC2CC2)[C@H]1O5` (relative stereo) [Compound 53, 17-cyclopropylmethyl-3,14β-dihydroxy-4,5α-epoxy-6β-[N-methyl-trans-3-(2-furyl)acrylamido]morphinan]: 4.74. The same measure for `CN(C(=O)C#Cc1cccc(C(F)(F)F)c1)[C@@H]1CC[C@@]2(O)[C@H]3Cc4ccc(O)c5c4[C@@]2(CCN3CC2CC2)[C@H]1O5` [Compound 90, 17-Cyclopropylmethyl-3,14β-dihydroxy-4,5α-epoxy-6β-[N-methyl-3-(3-trifluoromethylphenyl)propiolamido]morphinan]: 5.36. Then `CCCCCC(=O)N(C)[C@@H]1CC[C@@]2(O)[C@H]3Cc4ccc(O)c5c4[C@@]2(CCN3CC2CC2)[C@H]1O5` [Compound 49, 17-cyclopropylmethyl-3,14β-dihydroxy-4,5α-epoxy-6β-(N-methylhexanoamido)morphinan], with 4.52.
